According to US7887840B2, “Pharmaceutical compositions comprising drug and concentration-enhancing polymers” (Bend Research, Inc., priority 2001, dated 2011):
Counter-ions that a name gives are not always drawn.

Assay: in vitro dissolution test using a microcentrifuge method
Format: physicochemical
Parameters: AUC / AUC90: concentration or dose not given beside the values
Conditions: for Ziprasidone Concentration: 50 mM MOPS buffer with 150 mM NaCl, pH 7.4, 37° C., supernatant after centrifugation
Protocol: The dissolution of ziprasidone from the complex mixed with various concentration-enhancing polymers was evaluated in an in vitro dissolution test using a microcentrifuge method. […] The polymer amounts are expressed as wt % based on the weight of the complex. […] Ltd., Tokyo, Japan). […] Tests were performed in duplicate. The tubes were placed in a 37° C. temperature-controlled chamber, and 1.8 mL of 50 mM 4-morpholinepropanesulfonic acid (MOPS) buffer with 150 mM NaCl (pH 7.4) was added. The samples were quickly mixed using a vortex mixer for about 60 seconds. […] The resulting supernatant solution was then sampled and diluted 1:4 (by volume) with methanol and then analyzed by high-performance liquid chromatography (HPLC). A Phenomenex Ultracarb 5 ODS HPLC column was used with a mobile phase of 60 vol. % of 0.02 M KH2PO4 (pH 3.0), and 40 vol. % acetonitrile. UV detection was measured at 254 nm. The contents of the tubes were mixed on the vortex mixer and allowed to stand undisturbed at 37° C. until the next sample was taken. […] The concentrations of drug obtained in these samples are shown below. The dissolution of ziprasidone from these complexes mixed with concentration-enhancing polymer was evaluated using the in vitro dissolution test described in the Examples above.

AUC90 (dissolution AUC 0-90 min, MOPS buffer pH 7.4, 37° C.): 100 µg·min/mL
AUC (dissolution AUC up to 0 min, MOPS buffer pH 7.4, 37° C.): 0 µg·min/mL
AUC (dissolution AUC up to 4 min, MOPS buffer pH 7.4, 37° C.): 0 µg·min/mL
AUC (dissolution AUC up to 10 min, MOPS buffer pH 7.4, 37° C.): 0 µg·min/mL
AUC (dissolution AUC up to 30 min, MOPS buffer pH 7.4, 37° C.): 0 µg·min/mL
AUC (dissolution AUC up to 60 min, MOPS buffer pH 7.4, 37° C.): 0 µg·min/mL
AUC (dissolution AUC up to 90 min, MOPS buffer pH 7.4, 37° C.): 100 µg·min/mL
Cmax,90 (maximum ziprasidone concentration within 90 min, MOPS buffer pH 7.4, 37° C.): 3000 ng/mL
Ziprasidone Concentration (time 0 min): 0 µg/mL
Ziprasidone Concentration (time 4 min): 3 µg/mL
Ziprasidone Concentration (time 10 min): 1 µg/mL
Ziprasidone Concentration (time 30 min): 1 µg/mL
Ziprasidone Concentration (time 60 min): 1 µg/mL
Ziprasidone Concentration (time 90 min): 1 µg/mL
SMILES: O=C1Cc2cc(CCN3CCN(c4nsc5ccccc45)CC3)c(Cl)cc2N1 [Example C2, ziprasidone mesylate]
